Measured values reported in ChEMBL document CHEMBL4507309 (2021).

Key:
[1] = molecular target: 5-hydroxytryptamine receptor 1A (Homo sapiens, UniProt P08908); experiment: GPCRScan assay: inhibition of 5-HT1A; design: radioligand conc. used [nm] 0.5 – 1.0, parental cells stable CHO
[2] = molecular target: T1, 5-hydroxytryptamine receptor 1B (Homo sapiens, UniProt P28222); experiment: GPCRScan assay: inhibition of 5-HT1B; design: radioligand conc. used [nm] 0.6 – 1.5, parental cells stable HEK
[3] = molecular target: T2, 5-hydroxytryptamine receptor 1D (Homo sapiens, UniProt P28221); experiment: GPCRScan assay: inhibition of 5-HT1D; design: radioligand conc. used [nm] 1.0 – 2.0, parental cells HEKT
[4] = molecular target: T3, 5-hydroxytryptamine receptor 2A (Homo sapiens, UniProt P28223); experiment: GPCRScan assay: inhibition of 5-HT2A; design: radioligand conc. used [nm] 1.2 – 2.4, parental cells HEKT
[5] = molecular target: T4, 5-hydroxytryptamine receptor 2B (Homo sapiens, UniProt P41595); experiment: GPCRScan assay: inhibition of 5-HT2B; design: radioligand conc. used [nm] 1.0 – 2.0, parental cells stable HEK
[6] = molecular target: 5-hydroxytryptamine receptor 2C (Homo sapiens, UniProt P28335); experiment: GPCRScan assay: inhibition of 5-HT2C; design: radioligand conc. used [nm] 1.0 – 2.5, parental cells HEK T
[7] = molecular target: 5-hydroxytryptamine receptor 3A (Homo sapiens, UniProt P46098); experiment: GPCRScan assay: inhibition of 5-HT3; design: radioligand conc. used [nm] 1.0 – 2.0, parental cells HEKT
[8] = molecular target: T5, 5-hydroxytryptamine receptor 5A (Homo sapiens, UniProt P47898); experiment: GPCRScan assay: inhibition of 5-HT5A; design: radioligand conc. used [nm] 2.0 - 3.3, parental cells Flp-In CHO
[9] = molecular target: T6, 5-hydroxytryptamine receptor 6 (Homo sapiens, UniProt P50406); experiment: GPCRScan assay: inhibition of 5-HT6; design: radioligand conc. used [nm] 2.0 – 4.0, parental cells stable HEK
[10] = molecular target: T7, 5-hydroxytryptamine receptor 7 (Homo sapiens, UniProt P34969); experiment: GPCRScan assay: inhibition of 5-HT7A; design: radioligand conc. used [nm] 5.0 – 6.0, parental cells Stable HEK
[11] = molecular target: T8, D(1A) dopamine receptor (Homo sapiens, UniProt P21728); experiment: GPCRScan assay: inhibition of D1; design: radioligand conc. used [nm] 0.6 – 1.3, parental cells HEKT
[12] = molecular target: T9, Sodium-dependent dopamine transporter (Homo sapiens, UniProt Q01959); experiment: GPCRScan assay: inhibition of DAT; design: radioligand conc. used [nm] 3.6 – 16.0, parental cells stable HEK
[13] = molecular target: T10, Kappa-type opioid receptor (Homo sapiens, UniProt P41145); experiment: GPCRScan assay: inhibition of KOR; design: radioligand conc. used [nm] 0.6 – 1.2, parental cells stable HEK
[14] = molecular target: T11, Histamine H1 receptor (Homo sapiens, UniProt P35367); experiment: GPCRScan assay: inhibition of H1; design: radioligand conc. used [nm] 0.6 – 2.0, parental cells stable HEK
[15] = molecular target: T12, Histamine H2 receptor (Homo sapiens, UniProt P25021); experiment: GPCRScan assay: inhibition of H2; design: radioligand conc. used [nm] 0.02 – 0.05, parental cells Stable HEK
[16] = molecular target: Alpha-2B adrenergic receptor (Homo sapiens, UniProt P18089); experiment: GPCRScan assay: inhibition of Alpha2B; design: radioligand conc. used [nm] 1.5 – 2.0, parental cells HEKT
[17] = molecular target: Muscarinic acetylcholine receptor M1 (Homo sapiens, UniProt P11229); experiment: GPCRScan assay: inhibition of M1; design: radioligand conc. used [nm] 0.3 – 1.2, parental cells stable CHO
[18] = molecular target: Muscarinic acetylcholine receptor M2 (Homo sapiens, UniProt P08172); experiment: GPCRScan assay: inhibition of M2; design: radioligand conc. used [nm] 0.2 – 1.0, parental cells stable CHO
[19] = molecular target: T13, Sigma intracellular receptor 2 (Homo sapiens, UniProt Q5BJF2); experiment: GPCRScan assay: inhibition of Sigma 2; design: radioligand conc. used [nm] 5.0, parental cells HEKT
[20] = molecular target: Glutamate [NMDA] receptor (Homo sapiens) (UniProt Q05586+Q12879+Q13224+O15399+O60391+Q14957+Q8TCU5); experiment: (§1) GPCRScan assay: inhibition of NMDA; assay type: protein-complex assay; design: radioligand conc. used [nm] 1.4 – 13.0; conditions: Compound concentration 10.0 uM
[21] = molecular target: Glutamate [NMDA] receptor; experiment: as §1; assay type: protein-complex assay, Homo sapiens; design: radioligand conc. used [nm] 1.4 – 13.0
[22] = molecular target: 5-hydroxytryptamine receptor 4 (Homo sapiens, UniProt Q13639); experiment: GPCRScan assay: inhibition of 5-HT4; design: radioligand conc. used [nm] 0.5 – 2.0, parental cells HEK T
[23] = molecular target: 5-hydroxytryptamine receptor 1A (Homo sapiens) (UniProt P08908); conditions: Compound concentration 10.0 uM
[24] = molecular target: T1, 5-hydroxytryptamine receptor 1B; conditions: Compound concentration 10.0 uM
[25] = molecular target: T2, 5-hydroxytryptamine receptor 1D; conditions: Compound concentration 10.0 uM
[26] = molecular target: T3, 5-hydroxytryptamine receptor 2A; conditions: Compound concentration 10.0 uM
[27] = molecular target: T4, 5-hydroxytryptamine receptor 2B; conditions: Compound concentration 10.0 uM
[28] = molecular target: 5-hydroxytryptamine receptor 2C (Homo sapiens) (UniProt P28335); conditions: Compound concentration 10.0 uM
[29] = molecular target: 5-hydroxytryptamine receptor 3A (Homo sapiens) (UniProt P46098); conditions: Compound concentration 10.0 uM
[30] = molecular target: T5, 5-hydroxytryptamine receptor 5A; conditions: Compound concentration 10.0 uM
[31] = molecular target: T6, 5-hydroxytryptamine receptor 6; conditions: Compound concentration 10.0 uM
[32] = molecular target: T7, 5-hydroxytryptamine receptor 7; conditions: Compound concentration 10.0 uM
[33] = molecular target: T8, D(1A) dopamine receptor; conditions: Compound concentration 10.0 uM
[34] = molecular target: D(2) dopamine receptor (Homo sapiens) (UniProt P14416); conditions: Compound concentration 10.0 uM
[35] = molecular target: D(3) dopamine receptor (Homo sapiens) (UniProt P35462); conditions: Compound concentration 10.0 uM
[36] = molecular target: D(1B) dopamine receptor (Homo sapiens) (UniProt P21918); conditions: Compound concentration 10.0 uM
[37] = molecular target: Sodium-dependent serotonin transporter (Homo sapiens) (UniProt P31645); conditions: Compound concentration 10.0 uM
[38] = molecular target: Sodium-dependent noradrenaline transporter (Homo sapiens) (UniProt P23975); conditions: Compound concentration 10.0 uM
[39] = molecular target: T9, Sodium-dependent dopamine transporter; conditions: Compound concentration 10.0 uM
[40] = molecular target: Mu-type opioid receptor (Homo sapiens) (UniProt P35372); conditions: Compound concentration 10.0 uM
[41] = molecular target: Delta-type opioid receptor (Homo sapiens) (UniProt P41143); conditions: Compound concentration 10.0 uM
[42] = molecular target: T10, Kappa-type opioid receptor; conditions: Compound concentration 10.0 uM
[43] = molecular target: T14, GABA-A receptor; anion channel (Rattus norvegicus) (UniProt O09028+P15431+P18506+P18508+P19969+P20236+P23574+P23576+P28471+P28473+P30191+P62813+P63079+P63138+Q91ZM7+Q9ES14); conditions: Compound concentration 10.0 uM
[44] = molecular target: T11, Histamine H1 receptor; conditions: Compound concentration 10.0 uM
[45] = molecular target: T12, Histamine H2 receptor; conditions: Compound concentration 10.0 uM
[46] = molecular target: Histamine H4 receptor (Homo sapiens) (UniProt Q9H3N8); conditions: Compound concentration 10.0 uM
[47] = molecular target: Alpha-1A adrenergic receptor (Homo sapiens) (UniProt P35348); conditions: Compound concentration 10.0 uM
[48] = molecular target: Alpha-1B adrenergic receptor (Homo sapiens) (UniProt P35368); conditions: Compound concentration 10.0 uM
[49] = molecular target: Alpha-2A adrenergic receptor (Homo sapiens) (UniProt P08913); conditions: Compound concentration 10.0 uM
[50] = molecular target: Alpha-2B adrenergic receptor (Homo sapiens) (UniProt P18089); conditions: Compound concentration 10.0 uM
[51] = molecular target: Alpha-2C adrenergic receptor (Homo sapiens) (UniProt P18825); conditions: Compound concentration 10.0 uM
[52] = molecular target: Beta-1 adrenergic receptor (Homo sapiens) (UniProt P08588); conditions: Compound concentration 10.0 uM
[53] = molecular target: Beta-2 adrenergic receptor (Homo sapiens) (UniProt P07550); conditions: Compound concentration 10.0 uM
[54] = molecular target: Muscarinic acetylcholine receptor M1 (Homo sapiens) (UniProt P11229); conditions: Compound concentration 10.0 uM
[55] = molecular target: Muscarinic acetylcholine receptor M2 (Homo sapiens) (UniProt P08172); conditions: Compound concentration 10.0 uM
[56] = molecular target: Muscarinic acetylcholine receptor M3 (Homo sapiens) (UniProt P20309); conditions: Compound concentration 10.0 uM
[57] = molecular target: Muscarinic acetylcholine receptor M5 (Homo sapiens) (UniProt P08912); conditions: Compound concentration 10.0 uM
[58] = molecular target: Beta-3 adrenergic receptor (Homo sapiens) (UniProt P13945); conditions: Compound concentration 10.0 uM
[59] = molecular target: T14, GABA-A receptor; anion channel (Rattus norvegicus); conditions: Compound concentration 10.0 uM; remark: listed apart in the source
[60] = organism: Rattus norvegicus; conditions: Compound concentration 10.0 uM
[61] = molecular target: Alpha-1D adrenergic receptor (Homo sapiens) (UniProt P25100); conditions: Compound concentration 10.0 uM
[62] = molecular target: T13, Sigma intracellular receptor 2; conditions: Compound concentration 10.0 uM
[63] = molecular target: Sigma non-opioid intracellular receptor 1 (Homo sapiens) (UniProt Q99720); conditions: Compound concentration 10.0 uM

T4 sequence (P41595 whole entry): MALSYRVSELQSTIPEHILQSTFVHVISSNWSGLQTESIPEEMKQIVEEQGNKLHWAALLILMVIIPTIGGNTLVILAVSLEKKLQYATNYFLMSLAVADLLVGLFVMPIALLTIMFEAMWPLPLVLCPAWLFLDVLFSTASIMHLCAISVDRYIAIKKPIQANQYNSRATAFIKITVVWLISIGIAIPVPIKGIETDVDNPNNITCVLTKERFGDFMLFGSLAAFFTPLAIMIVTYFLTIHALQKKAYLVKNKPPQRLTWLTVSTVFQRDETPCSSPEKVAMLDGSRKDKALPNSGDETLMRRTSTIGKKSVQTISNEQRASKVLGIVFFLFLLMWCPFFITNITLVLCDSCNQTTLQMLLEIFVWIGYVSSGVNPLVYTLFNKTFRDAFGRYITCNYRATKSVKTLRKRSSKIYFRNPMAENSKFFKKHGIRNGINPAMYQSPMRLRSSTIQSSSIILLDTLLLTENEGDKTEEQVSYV
T12 sequence (P25021 whole entry): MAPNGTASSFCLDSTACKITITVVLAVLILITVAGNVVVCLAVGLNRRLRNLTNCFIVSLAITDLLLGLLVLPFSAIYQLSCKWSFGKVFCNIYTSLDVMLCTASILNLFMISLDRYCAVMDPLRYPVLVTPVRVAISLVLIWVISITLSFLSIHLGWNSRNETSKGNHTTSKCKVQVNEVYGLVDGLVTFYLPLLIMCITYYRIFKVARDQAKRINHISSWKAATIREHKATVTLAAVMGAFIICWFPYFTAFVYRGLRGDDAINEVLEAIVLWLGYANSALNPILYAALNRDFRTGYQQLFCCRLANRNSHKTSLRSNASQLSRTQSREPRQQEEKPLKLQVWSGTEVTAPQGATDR
T11 sequence (P35367 whole entry): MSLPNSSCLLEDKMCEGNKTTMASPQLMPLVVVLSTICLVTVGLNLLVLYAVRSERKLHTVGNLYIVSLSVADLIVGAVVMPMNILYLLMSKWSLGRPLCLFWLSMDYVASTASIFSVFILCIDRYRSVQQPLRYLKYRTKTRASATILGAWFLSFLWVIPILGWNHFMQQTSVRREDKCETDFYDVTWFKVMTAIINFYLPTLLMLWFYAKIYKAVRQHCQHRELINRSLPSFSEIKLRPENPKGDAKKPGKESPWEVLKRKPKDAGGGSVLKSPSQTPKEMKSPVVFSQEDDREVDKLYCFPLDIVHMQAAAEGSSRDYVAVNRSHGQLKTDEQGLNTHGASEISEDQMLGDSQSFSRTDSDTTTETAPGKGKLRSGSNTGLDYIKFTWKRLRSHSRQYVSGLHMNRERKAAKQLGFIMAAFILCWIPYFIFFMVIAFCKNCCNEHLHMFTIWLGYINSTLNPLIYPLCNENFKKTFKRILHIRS
T9 sequence (Q01959 whole entry): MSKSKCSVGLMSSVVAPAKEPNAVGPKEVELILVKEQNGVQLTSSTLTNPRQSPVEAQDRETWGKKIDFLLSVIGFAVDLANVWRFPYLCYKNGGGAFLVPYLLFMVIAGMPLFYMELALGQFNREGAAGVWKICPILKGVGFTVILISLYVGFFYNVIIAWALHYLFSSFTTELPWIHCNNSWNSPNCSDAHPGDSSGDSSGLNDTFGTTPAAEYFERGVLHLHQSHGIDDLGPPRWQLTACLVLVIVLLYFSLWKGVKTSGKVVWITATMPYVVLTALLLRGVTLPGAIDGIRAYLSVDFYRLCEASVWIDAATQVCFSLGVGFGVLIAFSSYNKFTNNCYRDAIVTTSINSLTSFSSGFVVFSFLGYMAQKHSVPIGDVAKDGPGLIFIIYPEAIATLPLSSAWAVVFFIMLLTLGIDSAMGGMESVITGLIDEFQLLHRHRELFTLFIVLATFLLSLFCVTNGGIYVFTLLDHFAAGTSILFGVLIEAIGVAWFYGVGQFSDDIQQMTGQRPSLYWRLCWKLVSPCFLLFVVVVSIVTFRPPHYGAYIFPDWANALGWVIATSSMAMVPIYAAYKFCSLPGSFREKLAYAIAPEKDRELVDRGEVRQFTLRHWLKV
T2 sequence (P28221 whole entry): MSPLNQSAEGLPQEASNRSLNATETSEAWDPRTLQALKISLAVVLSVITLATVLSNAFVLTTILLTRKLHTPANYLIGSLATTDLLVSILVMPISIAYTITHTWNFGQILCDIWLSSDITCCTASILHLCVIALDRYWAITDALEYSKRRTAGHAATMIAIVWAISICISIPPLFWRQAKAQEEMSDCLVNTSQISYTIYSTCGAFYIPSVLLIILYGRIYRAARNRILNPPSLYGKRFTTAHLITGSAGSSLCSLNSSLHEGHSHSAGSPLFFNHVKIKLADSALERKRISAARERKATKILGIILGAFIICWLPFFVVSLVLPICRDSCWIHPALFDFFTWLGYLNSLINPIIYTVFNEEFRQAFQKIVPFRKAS
T5 sequence (P47898 whole entry): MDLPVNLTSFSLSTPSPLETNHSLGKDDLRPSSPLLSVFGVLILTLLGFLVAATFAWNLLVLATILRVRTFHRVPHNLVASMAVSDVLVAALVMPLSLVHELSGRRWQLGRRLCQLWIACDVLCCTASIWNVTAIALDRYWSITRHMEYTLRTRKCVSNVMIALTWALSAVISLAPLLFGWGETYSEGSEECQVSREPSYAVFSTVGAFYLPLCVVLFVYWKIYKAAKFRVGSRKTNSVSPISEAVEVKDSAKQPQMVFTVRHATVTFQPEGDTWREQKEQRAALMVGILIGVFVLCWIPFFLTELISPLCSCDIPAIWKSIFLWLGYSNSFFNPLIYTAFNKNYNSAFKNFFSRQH
T10 sequence (P41145 whole entry): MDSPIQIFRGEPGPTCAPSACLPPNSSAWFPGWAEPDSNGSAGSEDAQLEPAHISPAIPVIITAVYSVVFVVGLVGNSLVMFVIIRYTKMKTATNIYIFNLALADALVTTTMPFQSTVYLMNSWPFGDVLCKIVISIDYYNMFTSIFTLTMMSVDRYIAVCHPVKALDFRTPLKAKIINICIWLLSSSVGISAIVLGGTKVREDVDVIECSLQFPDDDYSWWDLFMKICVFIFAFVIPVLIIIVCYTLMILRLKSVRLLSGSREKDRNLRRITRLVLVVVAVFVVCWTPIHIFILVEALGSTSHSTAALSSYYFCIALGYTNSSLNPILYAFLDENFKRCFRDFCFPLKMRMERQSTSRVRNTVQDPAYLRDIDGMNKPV
T1 sequence (P28222 whole entry): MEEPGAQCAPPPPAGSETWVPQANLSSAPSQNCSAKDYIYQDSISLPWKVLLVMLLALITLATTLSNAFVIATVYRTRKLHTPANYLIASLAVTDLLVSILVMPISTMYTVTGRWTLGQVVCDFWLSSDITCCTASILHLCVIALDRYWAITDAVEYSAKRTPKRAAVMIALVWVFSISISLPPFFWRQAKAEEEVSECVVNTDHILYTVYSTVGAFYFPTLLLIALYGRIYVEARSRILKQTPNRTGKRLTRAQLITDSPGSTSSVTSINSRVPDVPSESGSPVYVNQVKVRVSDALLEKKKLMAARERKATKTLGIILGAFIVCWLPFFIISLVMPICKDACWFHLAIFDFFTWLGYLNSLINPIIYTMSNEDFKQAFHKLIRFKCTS
T7 sequence (P34969 whole entry): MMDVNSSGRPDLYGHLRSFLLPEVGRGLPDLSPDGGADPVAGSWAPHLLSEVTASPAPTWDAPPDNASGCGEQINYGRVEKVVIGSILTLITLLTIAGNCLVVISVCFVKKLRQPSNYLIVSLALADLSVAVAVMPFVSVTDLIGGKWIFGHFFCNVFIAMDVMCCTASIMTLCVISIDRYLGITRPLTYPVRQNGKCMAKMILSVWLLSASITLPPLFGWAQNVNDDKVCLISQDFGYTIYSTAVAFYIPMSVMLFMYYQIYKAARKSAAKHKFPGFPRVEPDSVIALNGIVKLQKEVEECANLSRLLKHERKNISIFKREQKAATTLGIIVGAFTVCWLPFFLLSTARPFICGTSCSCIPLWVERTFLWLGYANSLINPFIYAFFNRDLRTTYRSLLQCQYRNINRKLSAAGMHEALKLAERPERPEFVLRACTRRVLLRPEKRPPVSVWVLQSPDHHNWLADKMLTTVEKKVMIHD
T6 sequence (P50406 whole entry): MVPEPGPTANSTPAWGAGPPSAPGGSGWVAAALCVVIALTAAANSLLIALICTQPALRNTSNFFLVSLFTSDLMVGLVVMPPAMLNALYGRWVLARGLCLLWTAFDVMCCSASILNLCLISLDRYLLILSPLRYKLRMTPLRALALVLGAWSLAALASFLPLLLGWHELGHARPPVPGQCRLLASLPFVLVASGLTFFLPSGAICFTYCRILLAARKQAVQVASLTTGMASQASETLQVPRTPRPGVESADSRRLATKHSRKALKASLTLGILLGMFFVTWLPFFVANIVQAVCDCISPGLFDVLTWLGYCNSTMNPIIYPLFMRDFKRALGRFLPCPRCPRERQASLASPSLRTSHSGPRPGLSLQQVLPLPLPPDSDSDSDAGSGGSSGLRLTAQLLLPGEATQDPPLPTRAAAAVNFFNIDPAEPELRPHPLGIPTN
5-hydroxytryptamine receptor 1A, sequence (P08908 whole entry): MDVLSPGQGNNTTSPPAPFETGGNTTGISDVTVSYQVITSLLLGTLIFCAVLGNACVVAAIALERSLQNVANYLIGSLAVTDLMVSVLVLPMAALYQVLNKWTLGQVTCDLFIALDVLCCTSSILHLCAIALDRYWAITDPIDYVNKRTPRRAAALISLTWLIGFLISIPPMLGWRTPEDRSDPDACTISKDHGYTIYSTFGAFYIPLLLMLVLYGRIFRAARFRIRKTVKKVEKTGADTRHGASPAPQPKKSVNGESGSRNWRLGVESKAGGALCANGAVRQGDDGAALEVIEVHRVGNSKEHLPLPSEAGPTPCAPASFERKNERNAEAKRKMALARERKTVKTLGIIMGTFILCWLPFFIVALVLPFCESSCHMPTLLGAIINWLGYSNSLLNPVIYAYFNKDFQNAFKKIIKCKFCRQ
5-hydroxytryptamine receptor 1A (Homo sapiens), sequence (P08908 whole entry): as above

Ki ([1]; read-out: Ki): 223 nM
Ki ([1]; read-out: pKi (converted)): 214 nM
Ki ([2]; read-out: Ki): 3.41 µM
Ki ([2]; read-out: pKi (converted)): 3.31 µM
Ki ([3]; read-out: Ki): 3.25 µM
Ki ([3]; read-out: pKi (converted)): 3.14 µM
Ki [4]: 3.28 µM
Ki ([5]; read-out: Ki): 237 nM
Ki ([5]; read-out: pKi (converted)): 224 nM
Ki [6]: 5.55 µM
Ki ([7]; read-out: Ki): 3.99 µM
Ki ([7]; read-out: pKi (converted)): 3.72 µM
Ki ([8]; read-out: Ki): 5.82 µM
Ki ([8]; read-out: pKi (converted)): 5.62 µM
Ki [9]: 6.68 µM
Ki [10]: 2080 nM
Ki [11]: 3.42 µM
Ki ([12]; read-out: Ki): 2120 nM
Ki ([12]; read-out: pKi (converted)): 1620 nM
Ki ([13]; read-out: Ki): 2310 nM
Ki ([13]; read-out: pKi (converted)): 2190 nM
Ki ([14]; read-out: Ki): 4.55 µM
Ki ([14]; read-out: pKi (converted)): 4.68 µM
Ki ([15]; read-out: Ki): 1910 nM
Ki ([15]; read-out: pKi (converted)): 1780 nM
Ki ([16]; read-out: Ki): 3040 nM
Ki ([16]; read-out: pKi (converted)): 2570 nM
Ki [17]: 4.05 µM
Ki [18]: 4.43 µM
Ki [19]: 1890 nM
inhibition [20]: 0%
Ki [21]: 1000 nM
Ki [22]: 6.69 µM
inhibition ([22]; Compound concentration 10.0 uM): 0%
inhibition [23]: 72.1%
inhibition [24]: 17.7%
inhibition [25]: 58.6%
inhibition [26]: 19.9%
inhibition [27]: 80%
inhibition [28]: 31.7%
inhibition [29]: 55%
inhibition [30]: 28.8%
inhibition [31]: 23%
inhibition [32]: 60%
inhibition [33]: 3.15%
inhibition [34]: 8.56%
inhibition [35]: 5.75%
inhibition [36]: 16.7%
inhibition [37]: 35.4%
inhibition [38]: 26.2%
inhibition [39]: 52.1%
inhibition [40]: 39.7%
inhibition [41]: 22.5%
inhibition [42]: 48.4%
inhibition [43]: 1.68%
inhibition [44]: 25.5%
inhibition [45]: 24.8%
inhibition [46]: 0.51%
inhibition [47]: 23%
inhibition [48]: 16.5%
inhibition [49]: 17.6%
inhibition [50]: 21.8%
inhibition [51]: 44.7%
inhibition [52]: 18.8%
inhibition [53]: 33.3%
inhibition [54]: 12.4%
inhibition [55]: 22%
inhibition [56]: -3.52%
inhibition [57]: 15.5%
inhibition [58]: 11.6%
inhibition [59]: 4.11%
inhibition [60]: 8.58%
inhibition [61]: 25.4%
inhibition [62]: 50.3%
inhibition [63]: 3.82%
SMILES: Cc1ccc2nc(CNCCCOc3ccccc3)cc(O)c2c1 [UCSF924]
